Measured values reported in PubChem BioAssay AID1918939 (Molecular Pharmacology Branch, DTP, NCI, 2023).

Test system: 653999-131-R-J2-PDC complex spheroid viability
Assay: Anticancer human tumor 653999-131-R-J2-PDC patient-derived lung adenocarcinoma cell line growth inhibition
Details: for IC50: curve of first compound; for viability, T/C: stronger effect = lower value
Summary of the method: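 Drug combinations with the LSD1 inhibitor iadademstat tested on tumor cells co-cultured as spheroids with endothelial cells and mesenchymal stem cells. Concentrations descended in half-log increments from clinical Cmax or 10 microM.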

[1] = second compound 0.1 µM, first compound 0.00316 µM
[2] = second compound 0.1 µM, first compound 0.01 µM
[3] = second compound 0.1 µM, first compound 0.0316 µM
[4] = second compound 0.1 µM, first compound 0.1 µM
[5] = second compound 0.1 µM, first compound 0.316 µM
[6] = second compound 0.1 µM, first compound 1 µM
[7] = second compound 0.316 µM, first compound 0.00316 µM
[8] = second compound 0.316 µM, first compound 0.01 µM
[9] = second compound 0.316 µM, first compound 0.0316 µM
[10] = second compound 0.316 µM, first compound 0.1 µM
[11] = second compound 0.316 µM, first compound 0.316 µM
[12] = second compound 0.316 µM, first compound 1 µM
[13] = second compound 1 µM, first compound 0.00316 µM
[14] = second compound 1 µM, first compound 0.01 µM
[15] = second compound 1 µM, first compound 0.0316 µM
[16] = second compound 1 µM, first compound 0.1 µM
[17] = second compound 1 µM, first compound 0.316 µM
[18] = second compound 1 µM, first compound 1 µM
[19] = second compound 3.16 µM, first compound 0.00316 µM
[20] = second compound 3.16 µM, first compound 0.01 µM
[21] = second compound 3.16 µM, first compound 0.0316 µM
[22] = second compound 3.16 µM, first compound 0.1 µM
[23] = second compound 3.16 µM, first compound 0.316 µM
[24] = second compound 3.16 µM, first compound 1 µM
[25] = second compound 10 µM, first compound 0.00316 µM
[26] = second compound 10 µM, first compound 0.01 µM
[27] = second compound 10 µM, first compound 0.0316 µM
[28] = second compound 10 µM, first compound 0.1 µM
[29] = second compound 10 µM, first compound 0.316 µM
[30] = second compound 10 µM, first compound 1 µM
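Note: spheroids exposed to agents for seven days before readout.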

| Structure (SMILES) | IC50 (second compound 0.1 µM) | IC50 (second compound 0.316 µM) | IC50 (second compound 1 µM) | IC50 (second compound 3.16 µM) | IC50 (second compound 10 µM) | viability, T/C [1] | viability, T/C [2] | viability, T/C [3] | viability, T/C [4] | viability, T/C [5] | viability, T/C [6] | viability, T/C [7] | viability, T/C [8] | viability, T/C [9] | viability, T/C [10] | viability, T/C [11] | viability, T/C [12] | viability, T/C [13] | viability, T/C [14] | viability, T/C [15] | also measured |
| --- | --- | --- | --- | --- | --- | --- | --- | --- | --- | --- | --- | --- | --- | --- | --- | --- | --- | --- | --- | --- | --- |
| CC1COCCN1c1cc(-c2ccnn2C)c2ccnc(-c3ccn[nH]3)c2n1 (stereo not given) + NC1CC1c1ccc(-c2cccc(O)c2)cc1 | 5.31 nM | < 3.16 nM | < 3.16 nM | < 3.16 nM | < 3.16 nM | 52% | 50% | 44.3% | 29.7% | 42.7% | 45.7% | 47.7% | 44.4% | 36.7% | 36.6% | 36.1% | 48.5% | 45.5% | 47% | 36.8% | viability, T/C [16]: 32.7%; viability, T/C [17]: 31%; viability, T/C [18]: 36.3%; viability, T/C [19]: 49.5%; viability, T/C [20]: 45.5%; viability, T/C [21]: 36.5%; viability, T/C [22]: 28.8%; viability, T/C [23]: 36.1%; viability, T/C [24]: 39.7%; viability, T/C [25]: 47.5%; viability, T/C [26]: 46.6%; viability, T/C [27]: 39.5%; viability, T/C [28]: 29%; viability, T/C [29]: 29.7%; viability, T/C [30]: 34.7% |
| O=C(C=Cn1cnc(-c2cc(C(F)(F)F)cc(C(F)(F)F)c2)n1)NNc1cnccn1 + NC1CC1c1ccc(-c2cccc(O)c2)cc1 | 14.8 nM | 6.9 nM | < 3.16 nM | < 3.16 nM | < 3.16 nM | 53.4% | 53.9% | 47.5% | 38.8% | 39% | 29.2% | 54% | 48.3% | 44.3% | 34.9% | 37.2% | 31.8% | 47.8% | 51.5% | 43% | viability, T/C [16]: 34.2%; viability, T/C [17]: 27.2%; viability, T/C [18]: 27.4%; viability, T/C [19]: 46.4%; viability, T/C [20]: 45.8%; viability, T/C [21]: 38.8%; viability, T/C [22]: 41.1%; viability, T/C [23]: 30%; viability, T/C [24]: 24.8%; viability, T/C [25]: 49.5%; viability, T/C [26]: 48.8%; viability, T/C [27]: 39.5%; viability, T/C [28]: 39.6%; viability, T/C [29]: 33.7%; viability, T/C [30]: 27% |
